What was measured:
[1] = tested on: ICR mice; assay: Acute toxicity test; format: in vivo; set-up: Lethality: unit not given here; settings: for Lethality: 10080 min
How it was run: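 Single i.p. administration to ICR mice (7 weeks old, both sexes, n=6/group); appearance and mortality logged over 7 days, dead animals autopsied for gross pathology.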

[2] = tested on: murine leukemia L1210 cells; assay: Growth inhibition test on cultured murine leukemia L1210 cells; format: cell-based; settings: 48 hours, 37° C., Trypan blue viability
How it was run: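 Read-out is Trypan blue (0.17%) viability versus compound-free controls. Cells, 1×10^5, were cultured 48 h at 37° C under 5% CO2 in RPMI 1640/10% FCS containing various compound concentrations.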

[3] = Test for water solubility; format: physicochemical; settings: water
Excerpt: 3. Test for water solubility
A standard plot of UV absorbance(220 nm) vs. concentration was made; and employed to determine water-solubility.
The mixture was then passed through a 0.45 micron disposable membrane filter before dilution and UV measurement.

[4] = tested on: murine leukemia L1210; assay: Antitumor activity test on murine leukemia L1210 in vivo; set-up: species or system male BDF1 mice; settings: days 1, 5, 9
How it was run: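 Male BDF1 mice (6 weeks, 21±3 g; n=7) received 1×10^6 leukemia cells into the peritoneum on day 0, then test compound suspended or dissolved in 0.5% CMC i.p. on days 1, 5, 9. Activity expressed as T/C %, mean survival treated versus 0.5% CMC-injected controls.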

CC1[O][Pt][O]C1=O.NCC1OC2(CCCC2)OC1CN [Example 15, (L-lactato-O,O')[(4R,5R)-4,5-bis(aminomethyl)-1,3-dioxolane-2-spiro-1'-cyclopentane]platinum(II)]
Number of dead mice for 7 days ([1]; female, 41.3 mg/kg i.p.): 0/6
Number of dead mice, 1st day ([1]; female, 41.3 mg/kg i.p.): 0/6
Lethality ([1]; female, 41.3 mg/kg i.p.): 0.0
Number of dead mice for 7 days ([1]; female, 54.9 mg/kg i.p.): 3/6
Number of dead mice, 1st day ([1]; female, 54.9 mg/kg i.p.): 0/6
Number of dead mice, 3rd day ([1]; female, 54.9 mg/kg i.p.): 1/6
Number of dead mice, 4th day ([1]; female, 54.9 mg/kg i.p.): 1/5
Number of dead mice, 5th day ([1]; female, 54.9 mg/kg i.p.): 1/4
Lethality ([1]; female, 54.9 mg/kg i.p.): 50.0
Number of dead mice for 7 days ([1]; female, 71.4 mg/kg i.p.): 5/6
Number of dead mice, 1st day ([1]; female, 71.4 mg/kg i.p.): 0/6
Number of dead mice, 4th day ([1]; female, 71.4 mg/kg i.p.): 1/6
Number of dead mice, 5th day ([1]; female, 71.4 mg/kg i.p.): 3/5
Number of dead mice, 6th day ([1]; female, 71.4 mg/kg i.p.): 1/2
Lethality ([1]; female, 71.4 mg/kg i.p.): 83.7
Number of dead mice for 7 days ([1]; female, 91.8 mg/kg i.p.): 6/6
Number of dead mice, 1st day ([1]; female, 91.8 mg/kg i.p.): 0/6
Number of dead mice, 2nd day ([1]; female, 91.8 mg/kg i.p.): 1/6
Number of dead mice, 3rd day ([1]; female, 91.8 mg/kg i.p.): 2/5
Number of dead mice, 4th day ([1]; female, 91.8 mg/kg i.p.): 2/3
Number of dead mice, 5th day ([1]; female, 91.8 mg/kg i.p.): 1/1
Lethality ([1]; female, 91.8 mg/kg i.p.): 100.0
Number of dead mice for 7 days ([1]; male, 41.3 mg/kg i.p.): 0/6
Number of dead mice, 1st day ([1]; male, 41.3 mg/kg i.p.): 0/6
Lethality ([1]; male, 41.3 mg/kg i.p.): 0.0
Number of dead mice for 7 days ([1]; male, 54.9 mg/kg i.p.): 4/6
Number of dead mice, 1st day ([1]; male, 54.9 mg/kg i.p.): 0/6
Number of dead mice, 3rd day ([1]; male, 54.9 mg/kg i.p.): 2/6
Number of dead mice, 6th day ([1]; male, 54.9 mg/kg i.p.): 2/4
Lethality ([1]; male, 54.9 mg/kg i.p.): 66.7
Number of dead mice for 7 days ([1]; male, 71.4 mg/kg i.p.): 5/6
Number of dead mice, 1st day ([1]; male, 71.4 mg/kg i.p.): 0/6
Number of dead mice, 4th day ([1]; male, 71.4 mg/kg i.p.): 4/6
Number of dead mice, 5th day ([1]; male, 71.4 mg/kg i.p.): 1/2
Lethality ([1]; male, 71.4 mg/kg i.p.): 83.3
Number of dead mice for 7 days ([1]; male, 91.8 mg/kg i.p.): 6/6
Number of dead mice, 1st day ([1]; male, 91.8 mg/kg i.p.): 0/6
Number of dead mice, 2nd day ([1]; male, 91.8 mg/kg i.p.): 2/6
Number of dead mice, 3rd day ([1]; male, 91.8 mg/kg i.p.): 3/4
Number of dead mice, 4th day ([1]; male, 91.8 mg/kg i.p.): 1/1
Lethality ([1]; male, 91.8 mg/kg i.p.): 100.0
IC50 (concentration required for 50% inhibition of growth) [2]: 0.33 µg/mL
Solubility in water [3]: 4900 µg/mL
T/C (%) ([4]; 12.5 mg/kg i.p.): 225%
T/C (%) ([4]; 25 mg/kg i.p.): 243%
T/C (%) ([4]; 50 mg/kg i.p.): 192%

Reference: patent US5395947A, “Platinum(II) complex and processes for preparing the same” (Sunkyong Industries, Ltd., priority 1991, dated 1995)
